In patent US8697739B2, “Bicyclic acetyl-CoA carboxylase inhibitors and uses thereof” (Novartis AG, priority 2010, dated 2014):
Values belong to the molecule of their own block, whether it stands above or below them.

Target: T1, human acetyl-CoA carboxylase 2 (ACC2) (Homo sapiens, UniProt O00763)
T1 construct: The cDNA encoding amino acids 144 to 2458 of human acetyl-CoA carboxylase 2; made in house; host or cells: Sf9 insect cells (baculovirus, pFastBac1)
Test: Acetyl-CoA carboxylase enzyme assay (malonyl-CoA formation by LC/MS/MS)
Assay type: biochemical
Conditions: recombinant human ACC2 (aa 144-2458); read-out: IC50 ACC2
Procedure, shortened: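 Malonyl-CoA formation was read by LC/MS/MS MRM against a [13C3]-malonyl-CoA internal standard, after acetic acid quench. The enzyme was baculovirus/Sf9-expressed human ACC2 residues 144–2458, given 15 minutes room-temperature compound preincubation in HEPES pH 7.5 buffer with MgCl2, citrate and DTT. Substrate solution held 50 μM acetyl-CoA, 120 μM ATP and 2 mM KHCO3.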

T1 sequence (O00763 144-2458): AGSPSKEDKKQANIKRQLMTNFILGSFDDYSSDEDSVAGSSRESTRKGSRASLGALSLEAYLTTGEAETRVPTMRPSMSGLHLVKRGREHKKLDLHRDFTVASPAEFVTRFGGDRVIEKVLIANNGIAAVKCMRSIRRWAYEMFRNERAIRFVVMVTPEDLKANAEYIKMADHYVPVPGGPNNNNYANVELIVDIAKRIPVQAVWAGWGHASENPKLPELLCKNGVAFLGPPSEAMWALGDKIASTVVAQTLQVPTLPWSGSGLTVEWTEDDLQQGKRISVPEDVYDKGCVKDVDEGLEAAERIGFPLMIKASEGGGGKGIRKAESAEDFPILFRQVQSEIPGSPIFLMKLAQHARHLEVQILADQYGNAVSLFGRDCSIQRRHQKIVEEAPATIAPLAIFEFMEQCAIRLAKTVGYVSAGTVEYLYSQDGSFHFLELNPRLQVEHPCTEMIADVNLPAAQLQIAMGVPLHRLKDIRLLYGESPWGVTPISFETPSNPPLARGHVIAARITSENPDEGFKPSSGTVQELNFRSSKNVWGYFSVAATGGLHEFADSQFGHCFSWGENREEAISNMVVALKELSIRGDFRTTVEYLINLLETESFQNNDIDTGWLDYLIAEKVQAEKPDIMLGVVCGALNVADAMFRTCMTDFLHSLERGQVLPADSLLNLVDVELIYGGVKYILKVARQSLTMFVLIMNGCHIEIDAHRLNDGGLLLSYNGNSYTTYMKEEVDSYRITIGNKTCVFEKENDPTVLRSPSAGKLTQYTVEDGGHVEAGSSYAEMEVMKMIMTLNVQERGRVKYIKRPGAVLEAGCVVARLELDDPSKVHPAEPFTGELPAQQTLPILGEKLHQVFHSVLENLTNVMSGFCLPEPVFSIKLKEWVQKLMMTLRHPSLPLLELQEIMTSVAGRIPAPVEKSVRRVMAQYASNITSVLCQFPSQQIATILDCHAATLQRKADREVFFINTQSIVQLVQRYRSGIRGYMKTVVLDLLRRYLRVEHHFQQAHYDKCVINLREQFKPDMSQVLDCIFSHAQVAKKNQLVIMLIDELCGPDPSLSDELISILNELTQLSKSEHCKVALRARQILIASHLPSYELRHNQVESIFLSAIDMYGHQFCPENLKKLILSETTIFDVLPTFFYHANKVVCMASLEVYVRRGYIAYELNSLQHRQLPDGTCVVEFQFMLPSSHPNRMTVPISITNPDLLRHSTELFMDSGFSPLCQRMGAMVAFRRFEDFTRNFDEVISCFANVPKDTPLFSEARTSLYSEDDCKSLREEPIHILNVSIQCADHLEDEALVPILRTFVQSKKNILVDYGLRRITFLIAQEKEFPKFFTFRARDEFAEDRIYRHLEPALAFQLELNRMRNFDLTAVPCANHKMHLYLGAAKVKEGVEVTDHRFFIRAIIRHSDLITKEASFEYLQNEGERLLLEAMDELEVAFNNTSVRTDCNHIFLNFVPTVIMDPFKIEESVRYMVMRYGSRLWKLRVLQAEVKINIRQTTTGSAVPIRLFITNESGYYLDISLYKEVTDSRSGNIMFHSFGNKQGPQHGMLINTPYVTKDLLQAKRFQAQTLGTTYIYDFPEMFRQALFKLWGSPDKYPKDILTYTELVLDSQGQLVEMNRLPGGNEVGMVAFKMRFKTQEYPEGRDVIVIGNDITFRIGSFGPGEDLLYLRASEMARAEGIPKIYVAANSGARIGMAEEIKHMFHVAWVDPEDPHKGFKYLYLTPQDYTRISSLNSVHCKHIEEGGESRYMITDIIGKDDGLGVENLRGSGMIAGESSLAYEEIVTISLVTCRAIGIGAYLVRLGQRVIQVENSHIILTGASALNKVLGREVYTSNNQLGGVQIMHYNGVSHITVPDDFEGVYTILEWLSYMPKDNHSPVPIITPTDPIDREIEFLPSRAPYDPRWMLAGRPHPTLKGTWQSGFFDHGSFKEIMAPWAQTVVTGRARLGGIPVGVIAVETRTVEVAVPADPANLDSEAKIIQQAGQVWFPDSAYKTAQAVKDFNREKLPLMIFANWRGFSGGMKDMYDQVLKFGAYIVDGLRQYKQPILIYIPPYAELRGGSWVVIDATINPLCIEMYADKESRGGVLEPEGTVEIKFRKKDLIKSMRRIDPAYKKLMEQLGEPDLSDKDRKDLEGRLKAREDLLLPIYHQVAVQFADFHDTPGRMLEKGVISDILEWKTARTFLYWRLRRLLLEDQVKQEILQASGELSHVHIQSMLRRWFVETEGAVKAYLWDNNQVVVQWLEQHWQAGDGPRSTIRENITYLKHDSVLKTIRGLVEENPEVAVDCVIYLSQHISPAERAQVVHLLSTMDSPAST

SMILES: C[C@@H](NC(=O)[C@H]1CC[C@H](NS(=O)(=O)c2cnc3c(c2)NCC(C)(C)CN3)CC1)c1ccc(F)cc1 [Example 153, (1r,4R)-4-(3,3-dimethyl-2,3,4,5-tetrahydro-1H-pyrido[2,3-b][1,4]diazepine-8-sulfonamido)-N-((R)-1-(4-fluorophenyl)ethyl)cyclohexanecarboxamide]
IC50: 440 nM

SMILES: C[C@@H](NC(=O)[C@H]1CC[C@@H](NS(=O)(=O)c2cnc3c(c2)NCC(C)(C)CN3)CC1)c1ccc(F)cc1 [Example 154, (1s,4S)-4-(3,3-dimethyl-2,3,4,5-tetrahydro-1H-pyrido[2,3-b][1,4]diazepine-8-sulfonamido)-N-((R)-1-(4-fluorophenyl)ethyl)cyclohexanecarboxamide]
IC50: 1990 nM

SMILES: C[C@@H](NC(=O)[C@H]1CC[C@H](NS(=O)(=O)c2ccc3c(c2)N(C)C(=O)CO3)CC1)c1ccc(F)cc1 [Example 156, (1r,4R)-N-((R)-1-(4-fluorophenyl)ethyl)-4-(4-methyl-3-oxo-3,4-dihydro-2H-benzo[b][1,4]oxazine-6-sulfonamido)cyclohexanecarboxamide]
IC50: 183 nM

SMILES: CC(NC(=O)[C@H]1CC[C@H](NS(=O)(=O)c2ccc3c(c2)N(C)CCC3)CC1)c1ccccn1 (some centres unmarked) [Example 159, (1r,4r)-4-(1-methyl-1,2,3,4-tetrahydroquinoline-7-sulfonamido)-N-(1-(pyridin-2-yl)ethyl)cyclohexanecarboxamide]
IC50: 345 nM

SMILES: CC(NC(=O)[C@H]1CC[C@H](NS(=O)(=O)c2ccc3c(c2)N(C)CCC3)CC1)c1ccncc1 (some centres unmarked) [Example 161, (1r,4r)-4-(1-methyl-1,2,3,4-tetrahydroquinoline-7-sulfonamido)-N-(1-(pyridin-4-yl)ethyl)cyclohexanecarboxamide]
IC50: 340 nM

SMILES: O=C(O)[C@@H]1CCCN(C(=O)[C@H]2CC[C@H](NS(=O)(=O)c3ccc4ccccc4c3)CC2)C1 [Example 163, (R)-1-((1r,4R)-4-(naphthalene-2-sulfonamido)cyclohexanecarbonyl)piperidine-3-carboxylic acid]
IC50: 8520 nM

The next molecules have a lower IC50 than those just listed; values first:

IC50: 175 nM
SMILES: [2H]C([2H])([2H])N1C(=O)COc2ccc(S(=O)(=O)N[C@H]3CC[C@H](C(=O)N[C@H](C)c4ccc(F)cc4)CC3)cc21 [Example 155, (1r,4R)-N-((R)-1-(4-fluorophenyl)ethyl)-4-(3-oxo-4-(trideuteriomethyl)-3,4-dihydro-2H-benzo[b][1,4]oxazine-6-sulfonamido)cyclohexanecarboxamide]

IC50: 125 nM
SMILES: CC(NC(=O)C1CCC(NS(=O)(=O)c2cnc3c(c2)NC2CCCCC2N3)CC1)c1ccc(F)cc1 [Example 162, (1S,4R)-N-((R)-1-(4-fluorophenyl)ethyl)-4-((5aS,9aS)-5,5a,6,7,8,9,9a,10-octahydropyrido[3,2-b]quinoxaline-3-sulfonamido)cyclohexanecarboxamide]

IC50: 80 nM
SMILES: CC(NC(=O)[C@H]1CC[C@H](NS(=O)(=O)c2ccc3c(c2)N(C)CCC3)CC1)c1cccnc1 (some centres unmarked) [Example 160, (1r,4r)-4-(1-methyl-1,2,3,4-tetrahydroquinoline-7-sulfonamido)-N-(1-(pyridin-3-yl)ethyl)cyclohexanecarboxamide]

IC50: 38 nM
SMILES: C[C@@H](NC(=O)[C@H]1CC[C@H](NS(=O)(=O)c2ccc3c(c2)N(C)CCO3)CC1)c1ccc(F)cc1 [Example 157, (1r,4R)-N-((R)-1-(4-fluorophenyl)ethyl)-4-(4-methyl-3,4-dihydro-2H-benzo[b][1,4]oxazine-6-sulfonamido)cyclohexanecarboxamide]

IC50: 20 nM
SMILES: [2H]C([2H])([2H])N1CCOc2ccc(S(=O)(=O)N[C@H]3CC[C@H](C(=O)N[C@H](C)c4ccc(F)cc4)CC3)cc21 [Example 158, (1r,4R)-N-((R)-1-(4-fluorophenyl)ethyl)-4-(4-(trideuteriomethyl)-3,4-dihydro-2H-benzo[b][1,4]oxazine-6-sulfonamido)cyclohexanecarboxamide]
